# Reference: PubChem BioAssay (NCI)
# Values joined by “and” are separate entries in the source; they are usually repeats but may differ in a detail not shown here. Identical values can stand only once.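 Exposure lasted 48 hours, with cells grown in 96-well plates and compounds tested at five concentrations. GI50: concentration for 50% inhibition of growth. TGI: concentration producing complete growth inhibition.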
# What was measured:
# Assay in all cases: growth of human tumour cells (NCI), 48 h
# [1] = system: SF-295 CNS
# [2] = system: MOLT-4 leukemia
# [3] = system: U251 CNS
# [4] = system: HT29 colon
# [5] = system: HCT-15 colon
# [6] = system: A498 renal
# [7] = system: SK-MEL-2 melanoma
# [8] = system: OVCAR-3 ovarian
# [9] = system: SW-620 colon
# [10] = system: HOP-92 NSCLC
smiles,measurement,setting,value
C=CCSC[C@H](NC(=O)COc1ccccc1)C(=O)NC(C(=O)OCc1ccc([N+](=O)[O-])cc1)=C(C)C,TGI,[1],> 100 µM
same,TGI,[2],88.1 µM
same,TGI,[3],> 100 µM
same,TGI,[4],> 100 µM
same,TGI,[5],> 100 µM
same,TGI,[6],> 100 µM
same,TGI,[7],> 100 µM
same,TGI,[8],> 100 µM
Cn1cc(NC(=O)c2cc(NC(=O)CCCCCCCCCCC(=O)Nc3cc(C(=O)Nc4cc(C(=O)NCCC(=N)N)n(C)c4)n(C)c3)cn2C)cc1C(=O)NCCC(=N)N,TGI,[1],> 100 µM
same,TGI,[2],> 100 µM
same,TGI,[3],> 100 µM
same,TGI,[4],> 100 µM
same,TGI,[5],> 100 µM
same,TGI,[9],55 µM
same,TGI,[7],> 100 µM
same,TGI,[8],> 100 µM
O=c1[nH]c2ccccc2cc1C(Cl)=C(Cl)Cl,TGI,[1],> 100 µM
same,TGI,[2],> 100 µM
same,TGI,[3],> 100 µM
same,TGI,[10],> 100 µM
same,TGI,[4],> 100 µM
same,TGI,[9],> 100 µM
same,TGI,[6],> 100 µM
same,TGI,[7],> 100 µM
same,TGI,[8],> 100 µM
CCc1c2c(nc3cc4c(cc13)OCO4)-c1cc3c(c(=O)n1C2)COC(=O)[C@]3(O)CC,GI50,[1],< 0.001 µM
same,GI50,[2],< 0.001 µM
same,TGI,[2],0.0106 µM and 0.0339 µM
same,GI50,[10],0.019 µM
same,TGI,[10],> 100 µM
same,GI50,[4],0.0537 µM
same,TGI,[4],> 100 µM
same,GI50,[5],0.182 µM and 0.137 µM
same,TGI,[5],> 100 µM
same,TGI,[9],> 100 µM
same,GI50,[6],0.0097 µM and 0.0397 µM
same,TGI,[6],0.428 µM and 0.834 µM
same,GI50,[8],0.476 µM and 1.87 µM
same,TGI,[8],> 100 µM
COc1ccc2cc1Oc1ccc(cc1)C[C@H]1c3cc(c(OC)cc3CCN1C)Oc1c(OC)c(OC)cc3c1[C@H](C2)N(C)CC3,GI50,[1],12.8 µM
same,TGI,[1],16.3 µM and 28.9 µM and > 100 µM
same,GI50,[3],3.92 µM
same,TGI,[3],15.1 µM and 13.5 µM and > 100 µM
same,TGI,[10],11 µM and 26 µM and > 100 µM
same,GI50,[5],5.99 µM
same,TGI,[5],16.5 µM and 18.5 µM
same,GI50,[6],5.98 µM
same,TGI,[6],13.2 µM and 19.2 µM and > 100 µM
same,GI50,[8],11.8 µM
same,TGI,[8],15.7 µM and 28.7 µM
Cc1ccccc1C(C#N)C(=O)C(=O)Nc1nc([N+](=O)[O-])cs1 (centres undefined),TGI,[3],> 100 µM
same,TGI,[4],> 100 µM
same,TGI,[5],> 100 µM
same,TGI,[9],> 100 µM
same,TGI,[6],> 100 µM
same,TGI,[8],> 100 µM
CCOc1ccc(NC(=O)CC2Sc3ccccc3NC2=O)cc1 (centres undefined),TGI,[1],> 100 µM
same,TGI,[2],> 100 µM
same,TGI,[3],> 100 µM
same,TGI,[4],> 100 µM
same,TGI,[5],> 100 µM
same,TGI,[9],33.5 µM
same,TGI,[6],> 100 µM
same,TGI,[8],> 100 µM
O=C(/C=C/c1ccc(Cl)cc1)c1ccc(Cl)cc1Cl,GI50,[1],10.6 µM
same,TGI,[1],21.4 µM
same,GI50,[2],0.915 µM
same,TGI,[2],2.12 µM
same,GI50,[3],7.23 µM
same,TGI,[3],14.1 µM
same,GI50,[10],9.39 µM
same,TGI,[10],19.4 µM
same,GI50,[5],6.4 µM
same,TGI,[5],15.3 µM
same,GI50,[9],1.88 µM
same,TGI,[9],6.31 µM
same,GI50,[7],9.55 µM
same,TGI,[7],18.9 µM
same,GI50,[8],9.19 µM
same,TGI,[8],18.4 µM
C[C@@H]1CC[C@H]2C(COCC3=C(C(F)(F)F)O[C@@H]4O[C@@]5(C)CC[C@H]6[C@H](C)CC[C@@H]3[C@@]46OO5)=C(C(F)(F)F)O[C@@H]3O[C@@]4(C)CC[C@@H]1[C@]32OO4,GI50,[1],0.1 µM
same,GI50,[2],< 0.0233 µM
same,TGI,[2],> 100 µM
same,GI50,[3],< 0.01 µM
same,TGI,[3],> 100 µM
same,GI50,[4],< 0.01 µM
same,TGI,[4],> 100 µM
same,GI50,[5],< 0.01 µM
same,TGI,[5],> 100 µM
same,GI50,[9],< 0.01 µM
same,TGI,[9],> 100 µM
same,GI50,[6],32.7 µM
same,TGI,[6],> 100 µM
same,GI50,[8],0.0365 µM
same,TGI,[8],> 100 µM
CN(C)/C(=N/C(=S)Nc1ccccc1)SCc1ccccc1,TGI,[1],> 100 µM
same,TGI,[2],> 100 µM
same,TGI,[3],> 100 µM
same,TGI,[4],> 100 µM
same,TGI,[5],> 100 µM
same,TGI,[9],> 100 µM
same,TGI,[6],> 100 µM
same,TGI,[7],> 100 µM
same,TGI,[8],> 100 µM
